Measured values from patent US8338608B2, “Inhibitors of ion channels” (Icagen Inc., priority 2005, dated 2012).
Like-named read-outs stand apart in the source and are kept apart here.

Experiments:
[1] = biological target: T1, hSCN3A (Homo sapiens, UniProt Q9NY46); experiment: SCN3A inhibitory activity in HEK cells stably expressing hSCN3A (whole-cell patch clamp / radiotracer efflux HTS); format: cell-based
T1 construct: expressed in transfected cells

[2] = biological target: Nav1.2 (Homo sapiens, UniProt Q99250); settings: read-out: TTX IC-50; cited from earlier work
[3] = biological target: Nav1.9 (Homo sapiens, UniProt Q9UI33); settings: read-out: TTX IC-50; cited from earlier work
[4] = biological target: Nav1.3 (Homo sapiens, UniProt Q9NY46); settings: read-out: TTX IC-50; cited from earlier work
[5] = biological target: Nav1.1 (Homo sapiens, UniProt P35498); settings: read-out: TTX IC-50; cited from earlier work
[6] = biological target: Nav1.8 (Homo sapiens, UniProt Q9Y5Y9); settings: read-out: TTX IC-50; cited from earlier work
[7] = biological target: Nav1.6 (Homo sapiens, UniProt Q9UQD0); settings: read-out: TTX IC-50; cited from earlier work
[8] = 'as little as only'; cited from earlier work
[9] = HEK cells stably transfected with hSCN3A, read-out: SCN3A Inhibitory Activity

T1 sequence (Q9NY46 whole entry): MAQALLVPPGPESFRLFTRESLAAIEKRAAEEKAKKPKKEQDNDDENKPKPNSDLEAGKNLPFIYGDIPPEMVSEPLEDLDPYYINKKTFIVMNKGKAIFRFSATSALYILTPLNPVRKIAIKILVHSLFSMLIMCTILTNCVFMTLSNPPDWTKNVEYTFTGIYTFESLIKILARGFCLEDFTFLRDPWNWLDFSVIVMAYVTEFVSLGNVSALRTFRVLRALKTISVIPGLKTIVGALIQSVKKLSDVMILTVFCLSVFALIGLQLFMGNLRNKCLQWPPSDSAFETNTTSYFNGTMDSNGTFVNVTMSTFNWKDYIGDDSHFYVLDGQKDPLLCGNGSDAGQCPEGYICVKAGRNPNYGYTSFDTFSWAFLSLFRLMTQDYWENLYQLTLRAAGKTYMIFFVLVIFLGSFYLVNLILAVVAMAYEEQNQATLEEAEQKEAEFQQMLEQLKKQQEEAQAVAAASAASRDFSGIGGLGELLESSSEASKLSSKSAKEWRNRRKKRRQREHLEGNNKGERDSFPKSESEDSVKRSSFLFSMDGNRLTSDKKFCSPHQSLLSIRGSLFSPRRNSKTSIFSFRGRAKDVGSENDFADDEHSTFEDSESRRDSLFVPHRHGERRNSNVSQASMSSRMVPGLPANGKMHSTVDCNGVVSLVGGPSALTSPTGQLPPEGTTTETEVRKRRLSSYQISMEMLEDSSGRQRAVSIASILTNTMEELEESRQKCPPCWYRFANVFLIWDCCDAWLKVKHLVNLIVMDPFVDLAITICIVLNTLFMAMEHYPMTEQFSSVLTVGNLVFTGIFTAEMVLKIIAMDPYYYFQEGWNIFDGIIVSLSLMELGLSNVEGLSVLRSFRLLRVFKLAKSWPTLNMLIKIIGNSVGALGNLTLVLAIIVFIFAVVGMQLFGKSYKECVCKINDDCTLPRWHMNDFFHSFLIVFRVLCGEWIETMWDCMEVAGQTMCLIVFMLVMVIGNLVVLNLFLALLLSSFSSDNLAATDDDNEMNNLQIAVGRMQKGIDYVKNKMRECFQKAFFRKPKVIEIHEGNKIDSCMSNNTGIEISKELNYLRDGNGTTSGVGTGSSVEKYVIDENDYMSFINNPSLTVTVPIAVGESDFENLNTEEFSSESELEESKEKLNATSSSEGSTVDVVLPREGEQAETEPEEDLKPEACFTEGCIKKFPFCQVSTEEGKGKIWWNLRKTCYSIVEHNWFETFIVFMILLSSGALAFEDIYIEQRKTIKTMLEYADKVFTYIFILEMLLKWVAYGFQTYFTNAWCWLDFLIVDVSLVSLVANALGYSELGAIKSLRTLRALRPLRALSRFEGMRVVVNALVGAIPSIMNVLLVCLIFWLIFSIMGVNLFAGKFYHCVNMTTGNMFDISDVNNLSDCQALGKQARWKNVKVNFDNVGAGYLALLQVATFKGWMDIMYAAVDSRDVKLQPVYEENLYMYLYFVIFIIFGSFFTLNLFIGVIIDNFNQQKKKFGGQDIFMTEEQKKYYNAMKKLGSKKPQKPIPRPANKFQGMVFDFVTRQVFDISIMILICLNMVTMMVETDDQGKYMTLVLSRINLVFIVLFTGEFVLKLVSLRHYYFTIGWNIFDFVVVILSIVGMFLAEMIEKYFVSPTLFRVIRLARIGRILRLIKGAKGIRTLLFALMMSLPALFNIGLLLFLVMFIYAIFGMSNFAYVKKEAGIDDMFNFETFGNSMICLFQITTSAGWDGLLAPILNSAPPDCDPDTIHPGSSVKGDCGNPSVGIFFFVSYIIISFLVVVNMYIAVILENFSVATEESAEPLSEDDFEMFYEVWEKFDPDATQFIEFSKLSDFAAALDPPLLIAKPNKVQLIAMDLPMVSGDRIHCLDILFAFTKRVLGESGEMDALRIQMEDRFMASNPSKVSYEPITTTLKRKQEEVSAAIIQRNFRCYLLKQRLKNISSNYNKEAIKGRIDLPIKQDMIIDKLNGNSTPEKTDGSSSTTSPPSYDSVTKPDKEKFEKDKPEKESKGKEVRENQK
Chain of Nav1.9 (Q9UI33 whole entry, looked up): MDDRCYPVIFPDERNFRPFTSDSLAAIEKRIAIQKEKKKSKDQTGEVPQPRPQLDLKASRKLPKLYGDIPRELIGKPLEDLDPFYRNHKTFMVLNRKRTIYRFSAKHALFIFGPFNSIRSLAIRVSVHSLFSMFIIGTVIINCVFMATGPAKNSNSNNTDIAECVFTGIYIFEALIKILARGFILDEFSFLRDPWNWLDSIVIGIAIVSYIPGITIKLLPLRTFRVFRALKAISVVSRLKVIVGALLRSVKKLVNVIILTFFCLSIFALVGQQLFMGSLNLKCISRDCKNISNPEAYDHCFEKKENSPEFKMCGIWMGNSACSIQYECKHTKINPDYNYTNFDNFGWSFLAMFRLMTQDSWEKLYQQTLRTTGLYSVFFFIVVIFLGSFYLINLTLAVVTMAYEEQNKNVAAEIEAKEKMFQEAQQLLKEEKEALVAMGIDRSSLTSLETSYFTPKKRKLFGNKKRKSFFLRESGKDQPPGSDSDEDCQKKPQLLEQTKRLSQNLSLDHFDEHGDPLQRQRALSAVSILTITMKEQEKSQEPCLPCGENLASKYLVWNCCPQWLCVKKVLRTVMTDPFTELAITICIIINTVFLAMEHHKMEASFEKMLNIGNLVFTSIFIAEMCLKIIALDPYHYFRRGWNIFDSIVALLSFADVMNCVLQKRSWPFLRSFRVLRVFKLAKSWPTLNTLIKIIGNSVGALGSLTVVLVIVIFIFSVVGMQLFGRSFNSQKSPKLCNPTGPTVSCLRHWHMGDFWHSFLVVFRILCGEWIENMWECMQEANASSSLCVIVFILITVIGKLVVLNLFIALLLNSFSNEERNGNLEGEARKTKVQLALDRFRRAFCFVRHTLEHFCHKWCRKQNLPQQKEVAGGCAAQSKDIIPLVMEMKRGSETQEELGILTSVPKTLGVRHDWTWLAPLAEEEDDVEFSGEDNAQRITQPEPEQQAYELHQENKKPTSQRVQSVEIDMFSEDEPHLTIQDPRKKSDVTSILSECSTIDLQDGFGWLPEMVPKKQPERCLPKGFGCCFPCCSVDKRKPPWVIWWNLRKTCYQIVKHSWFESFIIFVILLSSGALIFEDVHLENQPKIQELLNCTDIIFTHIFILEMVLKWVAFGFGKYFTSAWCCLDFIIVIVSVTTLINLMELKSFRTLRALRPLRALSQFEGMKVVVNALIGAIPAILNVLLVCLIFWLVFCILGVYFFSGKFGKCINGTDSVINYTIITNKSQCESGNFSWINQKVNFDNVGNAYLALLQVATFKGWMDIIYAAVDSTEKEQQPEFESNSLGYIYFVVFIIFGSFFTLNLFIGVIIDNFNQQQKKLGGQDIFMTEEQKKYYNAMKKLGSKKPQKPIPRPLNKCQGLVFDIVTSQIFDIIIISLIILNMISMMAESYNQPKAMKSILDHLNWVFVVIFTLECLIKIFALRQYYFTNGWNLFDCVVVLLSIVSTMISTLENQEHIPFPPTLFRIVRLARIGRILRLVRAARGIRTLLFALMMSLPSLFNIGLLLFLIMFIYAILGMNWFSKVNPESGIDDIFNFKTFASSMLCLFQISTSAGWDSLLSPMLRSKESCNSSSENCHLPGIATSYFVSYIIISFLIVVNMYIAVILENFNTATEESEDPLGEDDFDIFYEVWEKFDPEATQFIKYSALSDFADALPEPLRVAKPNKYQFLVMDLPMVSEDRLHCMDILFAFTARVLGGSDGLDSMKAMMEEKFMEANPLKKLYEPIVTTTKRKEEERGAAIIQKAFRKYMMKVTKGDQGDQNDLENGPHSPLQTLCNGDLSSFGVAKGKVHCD
Chain of Nav1.3 (Q9NY46 whole entry, looked up): as the sequence (Q9NY46 whole entry) above

Compound | IC50 [1, 9] | further results
O=S(=O)(Nc1nccs1)c1ccc(S(=O)(=O)N2CCC(Cc3ccc(Cl)cc3)CC2)cc1 [Compound 29, 4-[4-(4-Chloro-benzyl)-piperidine-1-sulfonyl]-N-thiazol-2-yl-benzenesulfonamide] | 100 to 500 nM | 
O=S(=O)(Nc1nccs1)c1ccc(S(=O)(=O)NC2CCCCCC2)cc1 [Compound 30, Benzene-1,4-disulfonic acid 1-cycloheptylamide 4-thiazol-2-ylamide] | 100 to 500 nM | 
CC(C)(CNS(=O)(=O)c1ccc(S(=O)(=O)Nc2nccs2)cc1)Nc1ccc(C(C)(C)C)cc1 [Compound 31, Benzene-1,4-disulfonic acid 1-{[2-(4-tert-butyl-phenylamino)-2-methyl-propyl]-amide} 4-thiazol-2-ylamide] | 100 to 500 nM | 
C[C@H](CNS(=O)(=O)c1ccc(S(=O)(=O)Nc2ncc(Cl)s2)cc1)Oc1ccc(Cl)cc1 [Compound 32, Benzene-1,4-disulfonic acid 1-{[(R)-2-(4-chloro-phenoxy)-propyl]-amide} 4-[(5-chloro-thiazol-2-yl)-amide]] | 100 to 500 nM | 
C[C@@H](CNS(=O)(=O)c1ccc(S(=O)(=O)Nc2ncc(Cl)s2)cc1)Oc1ccc(Cl)cc1 [Compound 33, Benzene-1,4-disulfonic acid 1-{[(S)-2-(4-chloro-phenoxy)-propyl]-amide} 4-[(5-chloro-thiazol-2-yl)-amide]] | 100 to 500 nM | 
O=S(=O)(NCCOc1ccc(Cl)cc1F)c1ccc(S(=O)(=O)Nc2nccs2)cc1 [Compound 34, Benzene-1,4-disulfonic acid 1-{[2-(4-chloro-2-fluoro-phenoxy)-ethyl]-amide} 4-thiazol-2-ylamide] | 100 to 500 nM | 
CN(CCOc1ccc(C(C)(C)C)cc1)S(=O)(=O)c1ccc(S(=O)(=O)Nc2nccs2)cc1 [Compound 35, Benzene-1,4-disulfonic acid 1-{[2-(4-tert-butyl-phenoxy)-ethyl]-methyl-amide} 4-thiazol-2-ylamide] | 100 to 500 nM | 
O=S(=O)(Nc1nccs1)c1ccc(S(=O)(=O)N2CC(COc3cccc(Cl)c3)C2)cc1 [Compound 36, 4-[3-(3-Chloro-phenoxymethyl)-azetidine-1-sulfonyl]-N-thiazol-2-yl-benzenesulfonamide] |  | IC50 [1]: 100 to 500 nM
COc1ccc(CNS(=O)(=O)c2ccc(S(=O)(=O)Nc3nccs3)cc2)cc1Cl [Compound 37, Benzene-1,4-disulfonic acid 1-(3-chloro-4-methoxy-benzylamide) 4-thiazol-2-ylamide] | 100 to 500 nM | 
CC(C)(C)c1ccc(OC2(CNS(=O)(=O)c3ccc(S(=O)(=O)Nc4nccs4)cc3)CCCC2)cc1 [Compound 38, Benzene-1,4-disulfonic acid 1-{[1-(4-tert-butyl-phenoxy)-cyclopentylmethyl]-amide} 4-thiazol-2-ylamide] | 100 to 500 nM | 
CC(C)(CNS(=O)(=O)c1ccc(S(=O)(=O)Nc2nccs2)cc1)c1ccc(Cl)cc1 [Compound 39, Benzene-1,4-disulfonic acid 1-{[2-(4-chloro-phenyl)-2-methyl-propyl]-amide} 4-thiazol-2-ylamide] | 100 to 500 nM | 
O=S(=O)(NCc1cc(F)cc(C(F)(F)F)c1)c1ccc(S(=O)(=O)Nc2nccs2)cc1 [Compound 40, Benzene-1,4-disulfonic acid 1-(3-fluoro-5-trifluoromethyl-benzylamide) 4-thiazol-2-ylamide] | 100 to 500 nM | 
O=S(=O)(NCCc1ccc(Cl)s1)c1ccc(S(=O)(=O)Nc2nccs2)cc1 [Compound 41, Benzene-1,4-disulfonic acid 1-{[2-(5-chloro-thiophen-2-yl)-ethyl]-amide} 4-thiazol-2-ylamide] | 100 to 500 nM | 
CC(C)(C)CCNS(=O)(=O)c1ccc(S(=O)(=O)Nc2nccs2)c(F)c1 [Compound 42, 2-Fluoro-benzene-1,4-disulfonic acid 4-[(3,3-dimethyl-butyl)-amide] 1-thiazol-2-ylamide] | 100 to 500 nM | 
O=S(=O)(NCCOc1ccccc1Cl)Nc1ccc(S(=O)(=O)Nc2nccs2)cc1 [Compound 43, N-[2-(2-chloro-phenoxyl)-ethyl]-N′-[4-(N-thiazol-2-yl-sulfonamyl)-phenyl]-sulfamide] | 500 to 1000 nM | 
O=S(=O)(NCCC1CCCCC1)c1ccc(S(=O)(=O)Nc2nccs2)cc1 [Compound 44, Benzene-1,4-disulfonic acid 1-[(2-cyclohexyl-ethyl)-amide] 4-thiazol-2-ylamide] | 500 to 1000 nM | 
O=S(=O)(NCC(c1ccccc1)c1ccccc1)Nc1ccc(S(=O)(=O)Nc2nccs2)cn1 [Compound 45] | > 1000 nM | 
O=S(=O)(NCCC1CCOCC1)Nc1ccc(S(=O)(=O)Nc2nccs2)cc1 [Compound 46, N-[2-(4-tetrahydro-pyranyl]-ethyl]-N′-[4-(N-thiazol-2-yl-sulfonamyl)-phenyl]-sulfamide] | > 1000 nM | 
CN(CCc1ccccc1)S(=O)(=O)c1ccc(S(=O)(=O)Nc2nccs2)cc1 [Compound 47, Benzene-1,4-disulfonic acid 1-(methyl-phenethyl-amide) 4-thiazol-2-ylamide] | > 1000 nM | 
NC1=N[C@H](O)[C@H]2[C@H]3O[C@]4(O)O[C@@H]([C@@H](O)[C@@]2(N1)[C@@H]4O)[C@]3(O)CO [TTX, tetrodotoxin] |  | IC50 [2]: 10 nM; IC50 [3]: 1000 nM; IC50 [4]: 15 nM; IC50 [5]: 10 nM; IC50 [6]: 50000 nM; IC50 [7]: 6 nM
NCC1(CC(=O)O)CCCCC1 [gabapentin] |  | patients respond to gabapentin treatment for neuropathic pain [8]: 30%
